Source: PMC9686977, “Understanding the Role of Self-Assembly and Interaction with Biological Membranes of Short Cationic Lipopeptides in the Effective Design of New Antibiotics” (Antibiotics, 2022)
Converted amounts (≈) assume the structure as drawn. Residues, ends and D or L forms follow the SMILES beside them. *: point of attachment. Palmitoyl = CCCCCCCCCCCCCCCC(=O)*; Myristoyl = CCCCCCCCCCCCCC(=O)*; Lauroyl = CCCCCCCCCCCC(=O)*

Key:
[1] = system: Candida albicans ATCC 10231; format: cell-based; settings: ATCC 10231, 48 h
Protocol: (§1) The minimum inhibitory concentration (MIC) was determined according to the procedure recommended by the Clinical Laboratory Standards Institute guidelines. Reference strains of bacteria: Staphylococcus aureus ATCC 25923, Staphylococcus epidermidis ATCC 14990, Escherichia coli ATCC 25922, Pseudomonas aeruginosa ATCC 9027, and fungus Candida albicans ATCC 10231 were obtained from Polish Collection of Microorganisms (PCM, Polish Academy of Sciences, Wroclaw, Poland). […] The plates with the compounds were incubated for 18 h at 37 °C for bacteria and 48 h at 25 °C for fungi. The minimum inhibitory concentration was assumed as the lowest concentration of a lipopeptide at which the observable growth was inhibited.

[2] = system: Escherichia coli ATCC 25922; format: cell-based; settings: ATCC 25922, 18 h
Protocol: as §1

[3] = system: Pseudomonas aeruginosa ATCC 9027; format: cell-based; settings: ATCC 9027, 18 h
Protocol: as §1

[4] = system: Staphylococcus aureus ATCC 25923; format: cell-based; settings: ATCC 25923, 18 h
Protocol: as §1

[5] = system: Staphylococcus epidermidis ATCC 14990; format: cell-based; settings: ATCC 14990, 18 h
Protocol: as §1

[6] = system: human keratinocytes HaCaT; format: cell-based; settings: 48 h
Protocol: The cytotoxicity of the compounds was evaluated on the basis of a tetrazolium salt reduction test (MTT) performed along the lines of human keratinocytes HaCaT. The keratinocytes were planted in 96-well plates in a medium supplemented with serum. After 24 h, the medium was changed to a serum-free DMEM one containing graded concentrations of peptides. The cells were incubated with peptides for 48 h. Thereafter, MTT was added in order to reach a final concentration of 0.5 mg/mL, and the plates were incubated at 37 °C for 4 h. Then, the MTT reading was analysed using a plate reader. The absorbance at 630 nm (background absorbance) was subtracted from that at 570 nm for each well.

[7] = different lipopeptide concentrations

| Structure (SMILES) | MIC C. albicans [1] [µg/mL] | MIC E. coli [2] [µg/mL] | MIC P. aeruginosa [3] [µg/mL] | MIC S. aureus [4] [µg/mL] | MIC S. epidermidis [5] [µg/mL] | IC50 on human keratinocytes (HaCaT) [6] [µg/mL] | aggregate size from self-diffusion coefficients (PFG NMR), compared with C16-KKKK-NH2 [7] |
| --- | --- | --- | --- | --- | --- | --- | --- |
| CCCCCCCCCCCC(=O)N[C@@H](CCCCN)C(=O)N[C@@H](CCCCN)C(=O)N[C@@H](CCCCN)C(=O)N[C@@H](CCCCN)C(N)=O [Peptide C12-KKKK-NH2] (Lauroyl-KKKK-NH2) | >512 | 512 (≈ 719 µM) | 256 (≈ 360 µM) | 64 (≈ 89.9 µM) | 16 (≈ 22.5 µM) | – | – |
| CCCCCCCCCCCC(=O)N[C@@H](CCCCN)C(=O)N[C@@H](CCCNC(=N)N)C(=O)N[C@@H](CCCCN)C(=O)N[C@@H](CCCCN)C(N)=O [Peptide C12-KRKK-NH2] (Lauroyl-KRKK-NH2) | 512 (≈ 692 µM) | 512 (≈ 692 µM) | 512 (≈ 692 µM) | 64 (≈ 86.5 µM) | ≤1 | – | – |
| CCCCCCCCCCCCCC(=O)N[C@@H](CCCCN)C(=O)N[C@@H](CCCCN)C(=O)N[C@@H](CCCCN)C(=O)N[C@@H](CCCCN)C(N)=O [Peptide C14-KKKK-NH2] (Myristoyl-KKKK-NH2) | 128 (≈ 173 µM) | 128 (≈ 173 µM) | 64 (≈ 86.5 µM) | 32 (≈ 43.2 µM) | 2 (≈ 2.7 µM) | 15.63 ± 0.74 (≈ 21.1 µM) | – |
| CCCCCCCCCCCCCC(=O)N[C@@H](CCCCN)C(=O)N[C@@H](CCCCN)C(=O)N[C@@H](CCCCN)C(=O)N[C@@H](CCCNC(=N)N)C(N)=O [Peptide C14-KKKR-NH2] (Myristoyl-KKKR-NH2) | 128 (≈ 167 µM) | 128 (≈ 167 µM) | 128 (≈ 167 µM) | 32 (≈ 41.7 µM) | ≤1 | 32.5 ± 10.0 (≈ 42.3 µM) | – |
| CCCCCCCCCCCCCC(=O)N[C@@H](CCCCN)C(=O)N[C@@H](CCCNC(=N)N)C(=O)N[C@@H](CCCCN)C(=O)N[C@@H](CCCCN)C(N)=O [Peptide C14-KRKK-NH2] (Myristoyl-KRKK-NH2) | 128 (≈ 167 µM) | 64 (≈ 83.3 µM) | 64 (≈ 83.3 µM) | 16 (≈ 20.8 µM) | ≤1 | 20.38 ± 4.12 (≈ 26.5 µM) | – |
| CCCCCCCCCCCCCCCC(=O)N[C@@H](CCCNC(=N)N)C(=O)N[C@@H](CCCNC(=N)N)C(=O)N[C@@H](CCCNC(=N)N)C(=O)N[C@@H](CCCNC(=N)N)C(N)=O [Peptide C16-RRRR-NH2] (Palmitoyl-RRRR-NH2) | – | – | – | – | – | – | distinctly larger aggregates |

Continued, in another order:

| MIC C. albicans [1] [µg/mL] | MIC E. coli [2] [µg/mL] | MIC P. aeruginosa [3] [µg/mL] | MIC S. aureus [4] [µg/mL] | MIC S. epidermidis [5] [µg/mL] | Structure (SMILES) | IC50 on human keratinocytes (HaCaT) [6] [µg/mL] | aggregate size from self-diffusion coefficients (PFG NMR), compared with C16-KKKK-NH2 [7] |
| --- | --- | --- | --- | --- | --- | --- | --- |
| 8 (≈ 14.1 µM) | 8 (≈ 14.1 µM) | 64 (≈ 113 µM) | 16 (≈ 28.1 µM) | 4 (≈ 7.03 µM) | CCCCCCCCCCCCCCCC(=O)N[C@@H](CCCCN)C(=O)NCC(=O)N[C@@H](CCCCN)C(N)=O [Peptide C16-KGK-NH2] (Palmitoyl-Lys-Gly-Lys-NH2) | 7.41 ± 3.05 (≈ 13 µM) | – |
| 4 (≈ 7.82 µM) | 8 (≈ 15.6 µM) | 128 (≈ 250 µM) | 8 (≈ 15.6 µM) | 4 (≈ 7.82 µM) | CCCCCCCCCCCCCCCC(=O)N[C@@H](CCCCN)C(=O)N[C@@H](CCCCN)C(N)=O [Peptide C16-KK-NH2] | 2.5 ± 0.8 (≈ 4.88 µM) | – |
| 16 (≈ 20.8 µM) | 16 (≈ 20.8 µM) | 16 (≈ 20.8 µM) | 8 (≈ 10.4 µM) | 8 (≈ 10.4 µM) | CCCCCCCCCCCCCCCC(=O)N[C@@H](CCCCN)C(=O)N[C@@H](CCCCN)C(=O)N[C@@H](CCCCN)C(=O)N[C@@H](CCCCN)C(N)=O [Peptide C16-KKKK-NH2] (Palmitoyl-KKKK-NH2) | 23.52 ± 1.30 (≈ 30.6 µM) | – |
| 4 (≈ 6.86 µM) | 64 (≈ 110 µM) | 64 (≈ 110 µM) | 128 (≈ 220 µM) | 2 (≈ 3.43 µM) | CCCCCCCCCCCCCCCC(=O)N[C@@H](CCCCN)C(=O)NCCC(=O)N[C@@H](CCCCN)C(N)=O [Peptide C16-KβAK-NH2] | 25.11 ± 6.17 (≈ 43.1 µM) | – |
| 4 (≈ 7.41 µM) | 128 (≈ 237 µM) | 64 (≈ 119 µM) | 64 (≈ 119 µM) | 4 (≈ 7.41 µM) | CCCCCCCCCCCCCCCCCC(=O)N[C@@H](CCCCN)C(=O)N[C@@H](CCCCN)C(N)=O [Peptide C18-KK-NH2] | 0.69 ± 0.001 (≈ 1.28 µM) | – |
